Experimental data taken from patent US10350272B2, “Calcitonin analogues for treating diseases and disorders” (KeyBioscience AG, priority 2015, dated 2019).
“Also recorded” adds a separate entry of the source.

What was measured:
Type in all cases: in vivo, rat
HFD rats = experiment: Oral glucose tolerance test (OGTT)
Source text: Animals were challenged with an oral glucose bolus (2 g/kg) at time=0, and dosed with either KBP-042 or saline at t=−30. FIGS. 12A, 12B and 12C show blood glucose levels during acute OGTT, OGTT after 3 weeks, and OGTT after 7 weeks respectively. FIGS. 12D, 12E and 12F show the area under the curve for acute OGTT, OGTT after 3 weeks, and OGTT after 7 weeks respectively. FIGS. 12G, 12H and 12I show insulin levels during acute OGTT, OGTT after 3 weeks, and OGTT after 7 weeks respectively. FIGS. 12J, 12K and 12L show insulin levels during acute OGTT, OGTT after 3 weeks, and OGTT after 7 weeks respectively expressed as area under the curve. n=10 for all groups except vehicle (n=12). Statistical analysis between groups were performed as a One-way ANOVA followed by Tukey's post-hoc test with the following annotations: *P<0.05, **P<0.01, ***P<0.001 vs. HFD-Vehicle. ††P<0.01, †††P<0.001 vs. Pair-fed 5 μg/kg. ‡‡P<0.01, ‡‡‡P<0.001 vs. Pair-fed 10 μg/kg, Data are expressed as mean±SEM.

high fat diet (HFD) rats = experiment: 8-week (56 day) treatment study in high fat diet rats with pair-fed controls (body weight, food intake, adipose tissue, liver TAG, adipokines); conditions: for liver triglyceride / triacylglycerol content: 8 weeks, all dose groups; for body weight: HFD rats, 0.625-10 μg/kg/day, 8 weeks (56 days), vs vehicle and pair-fed
Experimental: To obtain obese rats, male Sprague-Dawley rats aged 12 weeks were placed on a diet consisting of regular rodent chow and a 60 kcal % high-fat diet (no. D12495; Research Diets) for a total of 12 wk. Following the 12 weeks on high fat diet the rats were randomized into treatment groups based on weight.
The second study consisted of the following groups: vehicle, KBP-042 0.625 μg/kg/day, KBP-042 1.25 μg/kg/day, KBP-042 2.5 μg/kg/day, KBP-042 5 μg/kg/day, KBP-042 10 μg/kg/day, pair-fed (calorie restriction) matching the 5 μg/kg/day and pair-fed (calorie restriction) matching the 10 μg/kg/day, to allow assessment of the effect of KBP-042 on bodyweight independent of its effect on food intake.
Throughout the experiment the bodyweight and food intake were monitored, and at termination liver and fat depots were collected for weighing and potential analysis of triglyceride content.
The method is based on Folch et al. At the time of extraction the samples were portioned at 500 mg individually and transferred to glass tubes, followed by the addition of 10 mL 100 μg/mL butylated hydroxytoluene (BHT) in chloroform:methanol 2:1 (v:v), and placed on ice. Each sample was added 150 μL of the internal standard solution. Homogenization was performed using a rotor-stator submersion blender (IKA Ultra-Turrax T25) with the sample tubes submerged in ice-water. The samples were each homogenized for 3×10 seconds with 50 second intervals, where after the homogenate is transferred to 35 mL screw-cap centrifuge tubes. The aggregate was cleaned in 5 mL chloroform:methanol 2:1 in the original glass tube, which was then transferred quantitatively to the homogenate. The homogenate was added 3 mL (0.24 times the total homogenate volume) of 0.73% (w/v) NaCl in MiliQ H2O and mixed, followed by centrifugation at 2800·g for 5 minutes at 4° C., to create a 2-phase system. The lower phase was transferred to a clean 12.5 mL centrifugation tube. The homogenate (the upper phase) was then added 3 mL chloroform:methanol 85:15 and mixed, followed by another centrifugation step. The new lower phase was then isolated and added to the first extract and dried down under nitrogen in a 40° C. water bath, followed by resolubilization in 300 μL chloroform:methanol 2:1. At this point the lipid extracts can be stored at −20° C.
The lipid extracts were fractionated on amino-propyl columns (Phenomenex Strata NH2, product number: 8B-S009-HBJ). The columns were pre-washed with 2×2 mL chloroform:methanol 23:1 (v:v) and left to dry. During fractionation the columns were not allowed to dry. The columns were primed with 2×1 mL hexane followed by application of the lipid extracts. Fraction 1 containing cholesterol esters was eluted with 3 mL Hexane into a clean tube. Fraction 2 containing TAG was eluted using 3 mL hexane:chloroform:ethylacetate 100:5:5 (v:v:v) into a clean tube. Fraction 3 containing DAG, Cholesterol and Ceramide was eluted using 3×2 mL chloroform:methanol 23:1 (v:v) into a new glass. Fraction 4 containing FFA was eluted using 5 mL 2% acetic acid in diethyl ether into a new glass. Fraction 5 containing PL was eluted using 4 mL methanol into a new glass. Fractions 1 and 2 were dried down under nitrogen at 40° C. and re-dissolved in 300 μL chloroform:methanol 95:5 and stored at −20° C. Fraction 4 and half of fraction 5 (fraction 5A) were dried down under nitrogen at 40° C. and re-dissolved in 300 μL chloroform:methanol 2:1 and stored at −20° C. Fraction 3 was equally dried down and re-dissolved in 135 μL chloroform and 67.5 μL isopropanol, transferred to HPLC vials and stored at −20° C. The other half of fraction (fraction 5B) was dried down under nitrogen and re-dissolved in 200 μL chloroform:isopropanol 1:1 (v:v), transferred to HPLC vials and stored at −20° C.
To allow gas chromatographic analysis of the fatty acids they must be converted to the more volatile Fatty Acid Methyl Ester (FAME) form. […]

[1] = tested on: insulin resistant HFD rats; experiment: Hyperinsulinemic-euglycemic clamp (glucose infusion rate)
Experimental: As liver fat is known to decrease insulin sensitivity, the effect of KBP-042 on insulin sensitivity was considered using the glucose infusion rate (GIR) in the hyperinsulinemic-euglycemic clamp. For this study ND rats were compared to insulin resistant HFD rats and 5 μg/kg KBP-042 treated HFD rats.
The results are shown in FIG. 13: A) Glucose infusion rate (GIR) at steady state during hyperinsulinemic-euglycemic clamp when blood glucose was clamped at basal levels after 21 days treatment; B) Body weight at hyperinsulinemic-euglycemic clamp experiment day after 21 days of treatment. Statistical analysis between groups was performed as a One-way ANOVA followed by Tukey's post-hoc test with the following annotations: *P<0.05, **P<0.01, ***P<0.001. Data are expressed as mean±SEM.

For “AcCSNLSTCVLGKLSQELHKLQTYPRTDVGANAP-NH2 (Ac-CSNLSTCVLGKLSQELHKLQTYPRTDVGANAP-NH2; not fully specified (bridges); cysteine pairing not given here) [KBP-042, calcitonin mimetic with Cys1-Cys7 disulphide bridge]”, the blood glucose (HFD rats; 30 minutes after subcutaneous administration (t=0), acute) was “hyperglycemic effect”, the “glucose tAUC” value (HFD rats; OGTT after 3 weeks, 2.5 μg/kg, 5 μg/kg and 10 μg/kg) was “significantly lowered” and the “glucose tolerance (tAUC)” value (HFD rats; OGTT at week 7, 5 μg/kg and 10 μg/kg) was “improved glucose tolerance”. The “glucose total area under the curve (tAUC)” value (HFD rats; acute OGTT, 10 μg/kg) was “significantly increased”, the “glucose tolerance in OGTT” value (HFD rats; acute dose, 10 μg/kg, compared to HFD-Vehicle) was “slightly impaired glucose tolerance” and the “insulin levels during OGTT” value (HFD rats; acute, first 60 minutes after glucose administration) was “reduced”. For the same substance, the “insulin levels during OGTT” value (HFD rats; after 3 weeks, all treatment groups except 0.625 μg/kg) was “lowered”, the “insulin levels during OGTT” value (HFD rats; week 7, three highest dose groups, first 60 minutes after glucose administration) was “drastically reduced” and the plasma adiponectin levels (high fat diet (HFD) rats; 1.25 μg/kg, 2.5 μg/kg, 5 μg/kg and 10 μg/kg, 56 days) was “significantly increased”. For the same substance, the “body weight at day 56” value (high fat diet (HFD) rats; 2.5 μg/kg, 5 μg/kg and 10 μg/kg groups compared to HFD-vehicle) was “significantly lower”, the food efficiency (high fat diet (HFD) rats; 2.5 μg/kg, 5 μg/kg and 10 μg/kg, 56 days, calculated from food intake and body weight change, significantly different from pair-fed controls) was “drastic reduction” and the plasma leptin levels (high fat diet (HFD) rats; 10 μg/kg compared to the corresponding pair-fed control, 56 days) was “reached statistical significance”. The “liver triacylglycerols (TAG)” value (high fat diet (HFD) rats; 10 μg/kg, 56 days, vs HFD-Vehicle, pair-fed control not significant) was “significantly reduced”, the “weight of isolated epididymal white adipose tissue” value (high fat diet (HFD) rats; 10 μg/kg, 56 days, vs HFD-vehicle) was “significantly reduced” and the “weight of isolated perirenal white adipose tissue” value (high fat diet (HFD) rats; 2.5, 5 and 10 μg/kg, 56 days, vs HFD-vehicle, not seen in pair-fed controls) was “significant reduction in size”. The perirenal fat depot (high fat diet (HFD) rats; 8-week study, compared to vehicle, even in a pair fed experiment) was “reduced”, the “liver triglyceride / triacylglycerol content” value (high fat diet (HFD) rats; compared to vehicle) was “trends indicated a dose-dependent effect” and the “liver triglyceride / triacylglycerol content” value (high fat diet (HFD) rats; compared to vehicle, listed as KBP peptide) was “reduced”. For the same substance, the “liver triglyceride / triacylglycerol content” value (high fat diet (HFD) rats; compared to vehicle, listed as KBP-peptide) was “improvement”, the “fatty acid composition of hepatic TAG” value (high fat diet (HFD) rats; 56 days) was “no differences in the relative distribution” and the “weight of inguinal white adipose tissue” value (high fat diet (HFD) rats; 56 days) was “trend towards reducing”. The plasma leptin levels (high fat diet (HFD) rats; 56 days, all doses) was “trend towards reduced levels”, the body weight (high fat diet (HFD) rats) was “dose-dependent and sustained reduction of body weight; also recorded: large reduction in body weight and maintained weight loss for 8 weeks” and the body weight (high fat diet (HFD) rats; listed as KBP-peptide) was “marked weight reduction even when compared to the calorie restricted groups”. For the same substance, the food intake (high fat diet (HFD) rats; first 6 days of treatment, 2.5, 5 and 10 μg/kg, transient) was “large reduction in food intake”, the body weight reduction ([1]; 5 μg/kg, 21 days, HFD rats) was about 18% and the “increase in glucose infusion rate (GIR) compared to HFD-Vehicle” value ([1]; 5 μg/kg, 21 days, p<0.001) was 82%. The “increase in GIR compared to ND” value ([1]; 5 μg/kg, 21 days, p<0.05) was 27%, the “body weight compared to ND rats” value ([1]; 5 μg/kg, end of study (21 days)) was “not significantly different” and the whole-body insulin sensitivity ([1]; hyperinsulinemic-euglycemic clamp) was “improved”.
